Where “and” joins values, the source holds several entries; their conditions need not be identical. Equal values may be shown once. Entries after “also recorded” stand apart in the source; their conditions may differ.
How the values were obtained:
[1] = biological target: T1, BACE1 cleavage of PSGL1 (Homo sapiens, UniProt P56817); experiment: PSGL1 assay (SEAP-PSGL1); type: cell-based; details: SEAP-PSGL1, HEK293
T1 construct: with or without full-length wild-type BACE1; expressed in transfected cells; host or cells: HEK293
T1 sequence (P56817 46-501): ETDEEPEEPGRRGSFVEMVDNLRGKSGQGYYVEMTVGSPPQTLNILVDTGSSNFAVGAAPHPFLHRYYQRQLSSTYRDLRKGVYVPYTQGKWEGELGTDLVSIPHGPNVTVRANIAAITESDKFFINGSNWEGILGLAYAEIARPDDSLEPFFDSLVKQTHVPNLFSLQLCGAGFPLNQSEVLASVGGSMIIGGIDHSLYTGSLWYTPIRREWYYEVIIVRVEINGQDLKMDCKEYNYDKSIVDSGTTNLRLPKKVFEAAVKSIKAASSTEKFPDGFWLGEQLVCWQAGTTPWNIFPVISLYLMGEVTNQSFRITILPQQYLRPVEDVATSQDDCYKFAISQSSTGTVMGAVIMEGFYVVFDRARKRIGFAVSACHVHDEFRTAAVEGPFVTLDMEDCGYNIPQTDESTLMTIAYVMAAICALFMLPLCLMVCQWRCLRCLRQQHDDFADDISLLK
Procedure: A cDNA construct encoding a human placental secreted alkaline phosphatase (SEAP)-PSGL1 (pAPtag5-PSGL1-β1) fusion protein was transfected in human embryonic kidney (HEK293) cells in a 6-well format with or without full-length wild-type BACE1 using Lipofectamine 2000 (Invitrogen). After 6–8 ​h transfection, the medium was replaced with DMEM containing the test compound at 10, 5, 1, 0.1 and 0.01 ​μM and 10 ​% heat-inactivated fetal bovine serum (FBS), and incubated for 24 ​h. SEAP activity was measured in the conditioned medium.

[2] = Liver microsome stability assay; type: in vitro ADME; details: human, human liver microsomes, pH 7.4, human liver microsomes; read-out: Microsomal stability T1/2
Procedure: Liver microsome stability assay
A 1 µL sample of 1 mM FAH65 and its enantiomers in 100% DMSO was added to 1 mL of 0.5 mg/mL human liver microsomes (Thermo Fisher Scientific, Cat# HMMPL) in PBS pH 7.4, 2 mM NADPH, and 2 mM MgCl2; and incubated at 37 °C for 120 min. Aliquots (50 µL) of the microsome solution were taken […]
quenching solution containing an internal standard. Solutions were clarified by centrifugation (16K x g, 5 min) and supernatants transferred to new tubes and lyophilized. Samples were reconstituted in 100 µL of 50/50/0.1 water/acetonitrile/formic acid prior to analysis via LC-MS/MS.
Normalized chromatographic peak areas were plotted at each time point and the half-life (t1/2) of compound in liver microsomes was determined by using the trendline equation to calculate the time at which compound abundance was 50% of that at timepoint 0 (T0).
One µL FAH65 and its enantiomers (1 mM in 100% DMSO) was added to human peripheral blood plasma (Cat#70039, Stemcell Technologies Inc) diluted 2-fold in PBS (1000 µL, pH 7.4) and incubated […]
and 180 min, and added to a 200 µL 100% acetonitrile reaction quenching solution containing an internal standard. Solutions were clarified by centrifugation (16K x g, 5 min) and supernatants were transferred to new tubes and lyophilized. […]

[3] = biological target: BACE1 (Homo sapiens, UniProt P56817); experiment: P5-P5′ BACE1 inhibition assay; type: biochemical; details: cell-free; read-out: BACE1 IC50 (P5-P5′ assay; BACE1-APP)
BACE1, sequence (P56817 46-501): as above
Procedure: For the P5-P5′ BACE1 inhibition assay, 4 ​μL of assay buffer was added to each well, followed by 2 ​μL of BACE1 diluted in assay buffer to 7.5 ​ng/μL. Then, 2 ​μL of inhibitor, at concentrations along an 11 ​pt. two-fold dilution series starting at 10 ​μM, or 0.5 ​μM, were added to appropriate wells and incubated for 30 ​min at room temperature. For all dilutions of inhibitor, drug stock solutions of 10 ​mM in DMSO were diluted to 50 ​μM in water; subsequent dilutions were in 0.5 ​% DMSO. Afterwards, 2 ​μL of fluorogenic P5-P5′ BACE1 substrate, diluted to 50 ​μM in assay buffer, were added to each well and the signal generated was read every 30 ​min at 25 ​°C for 2 ​h.

[4] = biological target: T2, BACE2 (Homo sapiens, UniProt Q9Y5Z0); experiment: BACE2 activity assay; type: biochemical
T2 construct: purchased R&D Systems 4097-AS
T2 sequence (Q9Y5Z0 63-518): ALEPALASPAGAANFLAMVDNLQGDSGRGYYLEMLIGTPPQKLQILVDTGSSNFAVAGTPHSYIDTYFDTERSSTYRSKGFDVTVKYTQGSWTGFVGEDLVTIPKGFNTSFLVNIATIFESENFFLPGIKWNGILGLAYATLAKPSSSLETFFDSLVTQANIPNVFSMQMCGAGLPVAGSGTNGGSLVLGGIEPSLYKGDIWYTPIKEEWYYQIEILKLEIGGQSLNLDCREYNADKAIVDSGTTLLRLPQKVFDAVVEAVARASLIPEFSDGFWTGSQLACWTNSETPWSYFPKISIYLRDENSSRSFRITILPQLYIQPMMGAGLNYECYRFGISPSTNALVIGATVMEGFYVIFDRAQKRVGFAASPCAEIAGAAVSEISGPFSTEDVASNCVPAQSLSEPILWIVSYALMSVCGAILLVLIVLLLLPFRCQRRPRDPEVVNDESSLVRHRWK
Procedure: The effects of candidate ASBIs on BACE2 activity was assessed using the R&D Systems BACE2 activity assay kit (Catalog #: 4097-AS and ES010) formatted from to the manufacturers. For the assay, 4 μL of assay buffer was added to each well, followed by 2 μL of BACE2 diluted in assay buffer to 10 ng/µL.
Then, 2 μL of inhibitor, at the appropriate concentrations were added to the wells and incubated for 30 minutes at room temperature. For all dilutions of inhibitor, drug stock solutions of 10 mM in DMSO were diluted to 50 μM in water; subsequent dilutions were in 0.5% DMSO. Afterwards, 2 μL of fluorogenic BACE2 substrate, diluted to 50 μM in assay buffer, were added to each well, after which the signal generated was read every 30 minutes at 25 °C for 2 hr (Fig S2).
FAH65 and its enantiomers at 10 mM in 100% DMSO was diluted in PBS pH 7.4 to 100, 10, 1, and 0.1 µM; plus, a vehicle-only control. The solutions were incubated at 37 °C for 90 min and centrifuged at 16K x g for 5 min. An aliquot of each supernatant was analyzed by LC-MS/MS. A standard curve was generated by plotting the known amount of analyte per standard in DMSO vs. chromatographic peak […]
Kinetic solubility (µM) was calculated using the trendline equation with maximum chromatographic peak area observed in the aqueous sample. (Table S3)
Liver microsome stability assay […]

[5] = Brain tissue binding assay; type: in vitro ADME, mouse; details: brain homogenate, 2 µM compound
Procedure: The […]
KIAM = (tr – t0) / t0; Pm = (KIAM / MW4) x 1010
Compounds with a Pm >0.85 are predicted to be BBB permeable (CNS+) at pH 7.4.
Brain Tissue Binding Assay
Brain tissue was homogenized in PBS (pH 7.4) (1: 3 weight(mg)/volume(µL)) and the protein concentration determined using the Micro BCA™ Pr otein Assay Kit (Thermo Fisher Scientific, Cat#23235). Brain homogenate was diluted to 20 mg/mL in PBS (pH 7.4) and added to Slide-A-Lyzer™ MINI Dialysis Devices, 10K MWCO dialysis cups (Thermo Fisher Scientific, Cat#PI88401) in a 48-well plate containing PBS (500 µL; pH 7.4). 1 µL of 1 mM compound was added to the brain homogenate (final concentration: 2 µM compound, 0.5% DMSO) and incubated on a rocker for 4.5 hours at 37 °C. 50 µL of brain homogenate (within the dialysis cup) and PBS (within the 48-well plate) were transferred to new microcentrifuge tubes containing 200 µL of quenching reagent (100% acetonitrile) containing internal standard. Solutions were clarified by centrifugation (16,000 x g, 5 min) and the supernatants were transferred to new tubes and lyophilized. Samples were reconstituted in 100 µL of 50/50/0.1 (Water/Acetonitrile/Formic Acid) prior to analysis via LC-MS/MS.
The % of the unbound drug was calculated using the following equation: fubound = [normalized peak area in buffer side / normalized peak area in brain side] x 100

In the case of Cc1cc(C2(c3cccc(-c4cncnc4)c3)N=C(N)N(C)C2=O)ccc1OC(F)F (stereo not drawn) [FAH65], the EC50 [1] is reported as > 10 µM, the half-life at 1 µM [2] is reported as 38 min and the IC50 [3] is reported as 7 nM and 10 to 30 nM and 10 nM and ~10 nM. For the same compound, the IC50 [4] was > 1000 nM, the “inhibition of BACE2 activity” value ([4]; in words) was “no inhibition; also recorded: did not inhibit” and the “Brain tissue binding, funbound” value [5] was 3.1%.

— article PMC12491701, “Discovery of an APP-selective BACE1 inhibitor for Alzheimer's disease” (Neurotherapeutics, 2025)
